Results from patent US4062950A, “Amino sugar derivatives” (priority 1973, dated 1977).
Where “and” joins values, the source holds several entries; their conditions need not be identical. Equal values may be shown once.

Columns and labels:
pancreas-α-amylase = biological target: T1, pancreas-α-amylase (Sus scrofa, UniProt P00690); experiment: In vitro amylase test; type: biochemical; conditions: for α-Amylase Inhibition / α-Amylase Inhibition In Vitro: in vitro; for α-Amylase Inhibition: Table II; for α-Amylase Inhibition In Vitro: Table VI; for amylase inhibiting activity of isolated product: isolated product of the Examples
T1 sequence (P00690 16-511): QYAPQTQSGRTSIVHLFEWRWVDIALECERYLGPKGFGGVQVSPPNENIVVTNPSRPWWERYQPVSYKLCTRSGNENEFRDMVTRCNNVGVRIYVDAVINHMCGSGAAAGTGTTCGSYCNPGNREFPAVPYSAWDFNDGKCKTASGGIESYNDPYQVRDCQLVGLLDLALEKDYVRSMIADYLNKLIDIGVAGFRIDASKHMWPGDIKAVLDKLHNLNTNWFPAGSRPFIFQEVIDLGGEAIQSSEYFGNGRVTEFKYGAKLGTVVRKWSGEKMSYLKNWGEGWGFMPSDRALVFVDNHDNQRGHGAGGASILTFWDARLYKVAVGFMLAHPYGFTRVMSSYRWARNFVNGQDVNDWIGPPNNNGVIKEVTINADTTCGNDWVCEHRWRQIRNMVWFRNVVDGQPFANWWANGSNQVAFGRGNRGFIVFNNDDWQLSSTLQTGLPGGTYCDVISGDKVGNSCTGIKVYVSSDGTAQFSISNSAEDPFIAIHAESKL
Method: One amylase inhibitor unit (1 AIU) is defined as the amount of inhibitor which inhibits two amylase units to the extent of 50%. One amylase unit (AU) is the amount of enzyme which under the test conditions specified below splits 1 μequivalent of glucoside bonds in the starch per minute. The μequivalents of split bonds are determined colorimetrically as μequivalents of reducing sugars formed, using dinitrosalicylic acid, and are quoted as μequivalents of maltose equivalents, using a maltose calibration curve. To carry out the test, 0.1 ml of amylase solution (20-22 AU/ml) are mixed with 0-10 μg of inhibitor or 0-20 μl of the solution to be tested in 0.4 ml of 0.02 M sodium glycerophosphate buffer/0.001 M CaCl2, pH 6.9, and the mixture is equilibrated for 10-20 minutes in a water bath at 35° C. The mixture is then incubated for 5 minutes at 35° C with 0.5 ml of a 1% strength starch solution which has been pre-warmed to 35° C (soluble starch No. 1,252 from Merck, Darmstadt), and thereafter 1 ml of dinitrosalicyclic acid reagent (according to P. bernfeld in Colowick-Kaplan, Meth. Enzymol., Volume l, page 149) is added. To develop the color, the batch is heated for 5 minutes on a boiling water bath and then cooled, and 10 ml of distilled water are added. The extinction at 540 nm is measured against a correspondingly made-up blank without amylase. […] The percentage inhibition is plotted as a function of the quotient [formula]

saccharase = biological target: T2, saccharase (Sus scrofa, UniProt P56729); experiment: In vitro saccharase test; type: biochemical, pig; conditions: for Saccharase Inhibition: Table II; for Saccharase Inhibition In Vitro: Table IV; for saccharase inhibiting activity of isolated product: product of the Examples
T2 construct: sucrase subunit of the sucrase-isomaltase complex hydrolyses sucrose
Method: One saccharase inhibitor unit (SIU) is defined as the amount of inhibitor which inhibits two saccharase units to the extent of 50%. One saccharase unit (SU) is the amount of enzyme which under the test conditions specified splits 1 μmol of sucrose to glucose and fructose per minute. The μmols of glucose formed are determined quantitatively by means of the glucose oxidase reaction under conditions under which a further splitting of the sucrose by the saccharase no longer takes place. To carry out the test, 0.05 ml of solubilized saccharase [from the mucous membrane of the small intestine of the pig, according to B. Borgastrom, A. Dahlquist, Acta Chem. Scand. 12, (1958), page 1,997], diluted with 0.1 M sodium maleate buffer of pH 6.0 to a SU content adjusted to 0.12 SU is mixed with 0-20 μg of inhibitor or 0-20 μl of the solution to be tested and brought up to 0.1 ml with 0.1 M sodium maleate buffer of pH 6.0. The mixture is equilibrated for 10 minutes at 35° C and 0.1 ml of an 0.05 M sucrose solution in 0.1 M sodium maleate buffer of pH 6.0, pre-warmed to 35° C, is then added. The mixture is incubated for 20 minutes at 35° C, the saccharase reaction is stopped by addition of 1 ml of glucose oxidase reagent, and the incubation is continued for a further 30 minutes at 35° C. (The glucose oxidase reagent is prepared by dissolving 2 mg of glucose oxidase, Boehringer, No. 15,423, in 100 ml of 0.565 M tris-HCl buffer of pH 7.0 and subsequently adding 1 ml of detergent solution (2 g of Triton X 100 + 8 g of 95% strength and analytical grade ethanol), 1 ml of dianisidine solution (260 mg of o-dianisidine. 2HCl in 20 ml of H2 O) and 0.5 ml of 0.1% strength aqueous peroxidase solution, Boehringer, No. 15,302). Thereafter, 1 ml of 50% strength H2 SO4 is added and a measurement carried out at 545 nm against a corresponding blank. To evaluate the results, the percentage inhibition of the saccharase employed is calculated and converted to SIU/g of SIU/liter from the 50% inhibition point, using a glucose calibration curve.

maltase = experiment: In vitro maltase test; type: biochemical, pig; conditions: Table II
Method: One maltase inhibitor unit (MIU) is defined as the amount of inhibitor which inhibits two maltase units to the extent of 50%. One maltase unit (MU) is the amount of enzyme which in one minute, under the test conditions specified below, splits 1 μmol of maltose into 2 μmol of glucose. The μmol of glucose formed are determined quantitatively by means of the glucose oxidase reaction under conditions such that further splitting of maltose by the maltase no longer takes place. To carry out the test, 0.05 ml of solubilized maltase [from the mucous membrane of the small intestine of the pig, according to B. Borgstrom, A, Dahlquist, Acta Chem, Scan. […] The mixture is equilibrated for 10 minutes at 35° C and 0.1 ml of an 0.05 M maltose solution in 0.1 M sodium maleate buffer of pH 6.0, pre-warmed to 35° C, is then added. The mixture is incubated for 20 minutes at 35° C and the maltase reaction is stopped by addition of 1 ml of the glucose oxidase reagent described above, and the incubation is continued for a further 30 minutes at 35° C. Thereafter, 1 ml of 50% strength sulfuric acid is added and a measurement carried out at 545 nm against a corresponding blank.

T2 sequence (P56729 with tags, fused parts or gaps): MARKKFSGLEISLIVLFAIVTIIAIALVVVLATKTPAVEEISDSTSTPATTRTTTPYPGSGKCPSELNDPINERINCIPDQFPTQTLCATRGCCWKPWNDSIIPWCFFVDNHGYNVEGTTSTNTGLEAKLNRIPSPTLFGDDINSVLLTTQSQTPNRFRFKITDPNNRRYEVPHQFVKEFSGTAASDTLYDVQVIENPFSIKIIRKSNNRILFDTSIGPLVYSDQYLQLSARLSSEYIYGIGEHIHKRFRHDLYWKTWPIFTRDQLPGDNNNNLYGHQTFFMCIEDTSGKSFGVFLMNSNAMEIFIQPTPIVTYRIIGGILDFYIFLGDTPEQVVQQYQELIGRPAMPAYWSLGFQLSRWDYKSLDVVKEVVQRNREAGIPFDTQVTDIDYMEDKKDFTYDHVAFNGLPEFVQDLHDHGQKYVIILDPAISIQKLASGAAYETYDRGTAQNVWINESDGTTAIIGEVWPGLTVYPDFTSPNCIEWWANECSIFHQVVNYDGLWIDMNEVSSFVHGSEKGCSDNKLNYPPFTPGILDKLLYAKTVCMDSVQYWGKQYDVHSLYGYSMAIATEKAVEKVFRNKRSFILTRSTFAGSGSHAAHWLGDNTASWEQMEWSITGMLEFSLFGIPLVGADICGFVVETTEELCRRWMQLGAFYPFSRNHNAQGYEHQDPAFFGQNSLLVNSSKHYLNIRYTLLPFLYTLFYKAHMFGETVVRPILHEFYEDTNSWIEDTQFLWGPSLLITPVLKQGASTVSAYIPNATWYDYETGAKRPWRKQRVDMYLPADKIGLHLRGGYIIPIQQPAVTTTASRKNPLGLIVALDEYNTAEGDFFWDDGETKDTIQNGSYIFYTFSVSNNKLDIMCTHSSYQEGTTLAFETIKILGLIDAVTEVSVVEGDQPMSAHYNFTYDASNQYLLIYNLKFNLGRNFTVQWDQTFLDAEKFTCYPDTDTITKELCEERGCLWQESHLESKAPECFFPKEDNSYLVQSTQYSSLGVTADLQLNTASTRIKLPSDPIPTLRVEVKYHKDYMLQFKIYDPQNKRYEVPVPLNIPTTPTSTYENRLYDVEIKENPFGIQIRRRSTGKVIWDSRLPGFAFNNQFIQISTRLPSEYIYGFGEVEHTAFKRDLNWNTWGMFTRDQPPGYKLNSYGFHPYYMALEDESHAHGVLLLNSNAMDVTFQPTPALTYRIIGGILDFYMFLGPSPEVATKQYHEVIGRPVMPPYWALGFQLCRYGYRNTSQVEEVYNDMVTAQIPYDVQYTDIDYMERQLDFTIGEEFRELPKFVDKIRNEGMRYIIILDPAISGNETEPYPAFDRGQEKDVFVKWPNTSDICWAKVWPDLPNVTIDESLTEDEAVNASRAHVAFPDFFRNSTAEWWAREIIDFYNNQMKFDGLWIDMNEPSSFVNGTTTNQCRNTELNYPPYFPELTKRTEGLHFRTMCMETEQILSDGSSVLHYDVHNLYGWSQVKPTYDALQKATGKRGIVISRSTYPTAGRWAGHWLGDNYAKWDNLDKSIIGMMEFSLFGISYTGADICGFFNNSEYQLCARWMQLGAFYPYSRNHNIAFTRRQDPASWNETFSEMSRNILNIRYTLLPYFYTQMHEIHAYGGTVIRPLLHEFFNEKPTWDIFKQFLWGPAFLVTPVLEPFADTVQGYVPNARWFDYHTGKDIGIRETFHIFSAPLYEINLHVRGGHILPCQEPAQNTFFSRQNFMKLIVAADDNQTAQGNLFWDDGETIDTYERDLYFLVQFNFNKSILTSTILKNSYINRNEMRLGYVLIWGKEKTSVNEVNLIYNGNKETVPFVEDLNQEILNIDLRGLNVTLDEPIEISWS

## C[C@H]1O[C@H](O[C@H]2[C@H](O)[C@@H](O)C(O)O[C@@H]2CO)[C@H](O)[C@@H](O)[C@@H]1N[C@H]1C=C(CO)[C@@H](O)[C@H](O)[C@H]1O (stereo partly drawn) [Formula IIB, O-{4,6-bisdesoxy-4-[1 S-(1,4,6/5)-4,5,6-trihydroxy-3-hydroxymethylcyclohex-2-en-1-ylamino]-α-D-glucopyranosyl}-(1→4)-D-glucopyranose]
pancreas-α-amylase
  α-Amylase Inhibition: 300,000 AIU/g
  α-Amylase Inhibition In Vitro: 300 AIU/mg
  amylase inhibiting activity of isolated product: 0.3 × 10^6 AIU/g
saccharase; in vitro, in words
  Saccharase inhibition relative to the derivative having two units: only half as much
saccharase; in vitro
  Saccharase Inhibition: 30,000 SIU/g
  Saccharase Inhibition In Vitro: 30 SIU/mg
saccharase; listed as one glucose unit
  saccharase inhibiting activity of isolated product: 30,000 SIU/g and 35,000 SIU/g
maltase
  Maltase Inhibition: 5,000 MIU/g

## C[C@H]1O[C@H](O[C@H]2[C@H](O)[C@@H](O)[C@@H](O[C@H]3[C@H](O)[C@@H](O)C(O)O[C@@H]3CO)O[C@@H]2CO)[C@H](O)[C@@H](O)[C@@H]1N[C@H]1C=C(CO)[C@@H](O[C@H]2O[C@H](CO)[C@@H](O)[C@H](O)[C@H]2O)[C@H](O)[C@H]1O (stereo partly drawn) [Formula V, O-{4,6-bisdesoxy-4-[1 S-(1,4,6/5)-4,5,6-trihydroxy-3-hydroxymethyl-4-O-α-D-glucopyranosyl-(1→4)-cyclohex-2-en-1-ylamino]-α-D-glycopyranosyl}-(1→4)-O-α-D-glucopyranosyl-(1→4)-D-glucopyranose]
pancreas-α-amylase
  α-Amylase Inhibition: 1,400,000 AIU/g
  α-Amylase Inhibition In Vitro: 1,400 AIU/mg
  amylase inhibiting activity of isolated product: 1.4 × 10^6 AIU/g
saccharase; in vitro
  Saccharase Inhibition: 21,000 SIU/g
  Saccharase Inhibition In Vitro: 21 SIU/mg
saccharase
  saccharase inhibiting activity of isolated product: 21,000 SIU/g
maltase
  Maltase Inhibition: 5,000 MIU/g

## C[C@H]1O[C@H](O[C@H]2[C@H](O)[C@@H](O)[C@@H](O[C@H]3[C@H](O)[C@@H](O)C(O)O[C@@H]3CO)O[C@@H]2CO)[C@H](O)[C@@H](O)[C@@H]1N[C@H]1C=C(CO)[C@@H](O)[C@H](O)[C@H]1O (stereo partly drawn) [Formula IIIB, O-{4,6-bisdesoxy-4-[1 S-(1,4,6/5)-4,5,6-trihydroxy-3-hydroxymethylcyclohex-2-en-1-ylamino]-α-D-glucopyranosyl}-(1→4)-O-α-D-glucopyranosyl-(1→4)-D-glucopyranose]
pancreas-α-amylase
  α-Amylase Inhibition: 300,000 AIU/g
  α-Amylase Inhibition In Vitro: 300 AIU/mg
  amylase inhibiting activity of isolated product: 0.3 × 10^6 AIU/g
saccharase; in vitro
  Saccharase inhibition, in words: most pronounced
  Saccharase Inhibition: 68,000 SIU/g
  Saccharase Inhibition In Vitro: 68 SIU/mg
saccharase; listed as 2 glucose units
  saccharase inhibiting activity of isolated product: 50,000 SIU/g and 60,000 SIU/g
saccharase; listed as 2 units
  saccharase inhibiting activity of isolated product: 68,000 SIU/g
saccharase; listed as two glucose units
  saccharase inhibiting activity of isolated product: 65,000 SIU/g
maltase
  Maltase Inhibition: 15,000 MIU/g
